Laboratory results reported in patent publication US12534457B2, “Heteroaryl derivative compounds, and uses thereof” (Voronoi Inc., priority 2021, dated 2026).

Tested on: Ba/F3 cells expressing EGFR Del19/C797S (EGFR DC)
Test: Proliferation inhibitory activity, Ba/F3 cells expressing EGFR Del19/C797S (CellTiter-Glo)
Format: cell-based
Conditions: Mus musculus, BaF3, 72 hours of compound treatment
Method: The following experiments were performed to evaluate the inhibitory activity of the compounds according to the present disclosure on Ba/F3 proliferation expressing EGFR C797S, L861Q, G719A, S768I, L718Q, and/or G724S mutations.
For Ba/F3 cells, RPMI-1640 containing 10% FBS and 5 ng/ml IL-3 (R&D Systems) was used. Transduced Ba/F3 cells were cultured after adding 1 μg/ml puromycin (Invitrogen) to the same medium.
At 24 hours before treatment with the compounds, 3000 to 5000 cells were aliquoted into each well of a white clear bottom 96 well plate (Corning). The compounds were diluted in dimethyl sulfoxide (3 times dilution, 12 concentrations in total), and injected in an amount of 1 μl so that the final concentration was 0.2 nM to 5 uM. For measurement of living cells, after 72 hours of compound treatment, the cells were stored at room temperature for 10 min using CellTiter-Glo luminescentcell-viability reagent (Promega), and then luminescence intensity was measured using a reader (SynergyNeo, Biotek). Each test was repeated three times. Result values were calculated as the cell growth rate (%) compared to the control. The graphs were created using GraphPad Prism version 8.3.0 program and the GI50 values were calculated.

GI50 | SMILES
< 50 nM | COc1cc(N2CCC(N3CCN(C)CC3)CC2)ccc1Nc1cc(N2OCC[C@@H]2c2cc(F)cc(F)c2)ncn1 [Example 21, (R)-6-(3-(3,5-difluorophenyl)isoxazolidin-2-yl)-N-(2-methoxy-4-(4-(4-methylpiperazin-1-yl)piperidin-1-yl)phenyl)pyrimidin-4-amine]
< 50 nM | COc1cc(N2CCCN(C)CC2)ccc1Nc1cc(N2OCC[C@@H]2c2ccccc2)ncn1 [Example 67, (R)—N-(2-methoxy-4-(4-methyl-1,4-diazepan-1-yl)phenyl)-6-(3-phenylisoxazolidin-2-yl)pyrimidin-4-amine]
< 50 nM | COc1cc(NC2CCN(C)CC2)ccc1Nc1cc(N2OCC[C@@H]2c2ccccc2)ncn1 [Example 113, (R)-2-methoxy-N4-(1-methylpiperidin-4-yl)-N1-(6-(3-phenylisoxazolidin-2-yl)pyrimidin-4-yl)benzene-1,4-diamine]
< 50 nM | CN1CCC2(CC1)CCN(c1ccc(Nc3cc(N4OCC[C@@H]4c4ccccc4)ncn3)cc1)CC2 [Example 135, (R)—N-(4-(9-methyl-3,9-diazaspiro[5.5]undecan-3-yl)phenyl)-6-(3-phenylisoxazolidin-2-yl)pyrimidin-4-amine]
< 50 nM | CCN1CCN(C2CCN(c3ccc(Nc4cc(N5OCC[C@@H]5c5cccc(F)c5F)ncn4)c(OC)c3)CC2)CC1 [Example 207, (R)-6-(3-(2,3-difluorophenyl)isoxazolidin-2-yl)-N-(4-(4-(4-ethylpiperazin-1-yl)piperidin-1-yl)-2-methoxyphenyl)pyrimidin-4-amine]
< 50 nM | Cc1cc(N2CCC(N3CCN(C)CC3)CC2)ccc1Nc1cc(N2OCC[C@@H]2c2ccccc2)ncn1 [Example 52, (R)—N-(2-methyl-4-(4-(4-methylpiperazin-1-yl)piperidin-1-yl)phenyl)-6-(3-phenylisoxazolidin-2-yl)pyrimidin-4-amine]
< 50 nM | CCc1cc(Nc2cc(N3OCC[C@@H]3c3cc(F)cc(F)c3)ncn2)c(OC)cc1N1CCC(N2CCN(C)CC2)CC1 [Example 25, (R)-6-(3-(3,5-difluorophenyl)isoxazolidin-2-yl)-N-(5-ethyl-2-methoxy-4-(4-(4-methylpiperazin-1-yl)piperidin-1-yl)phenyl)pyrimidin-4-amine]
< 50 nM | C[C@@H]1[C@@H](CS(C)(=O)=O)CN1c1cc(Nc2cc(N3OCC[C@@H]3c3cccc(F)c3F)ncn2)cc(-c2cnn(C)c2)c1N1CCOCC1 [Example 203, 6-((R)-3-(2,3-difluorophenyl)isoxazolidin-2-yl)-N-(3-(1-methyl-1H-pyrazol-4-yl)-5-((2R,3S)-2-methyl-3-((methylsulfonyl)methyl)azetidin-1-yl)-4-morpholinophenyl)pyrimidin-4-amine]
< 50 nM | CCc1cc(Nc2cc(N3OCC[C@@H]3c3ccc(F)cc3)ncn2)c(OC)cc1N1CCC(N2CCN(C)CC2)CC1 [Example 91, (R)—N-(5-ethyl-2-methoxy-4-(4-(4-methylpiperazin-1-yl)piperidin-1-yl)phenyl)-6-(3-(4-fluorophenyl)isoxazolidin-2-yl)pyrimidin-4-amine]
< 50 nM | COc1cc(N2CCC(N3CCN(C)CC3)CC2)ccc1Nc1cc(N2OCC[C@@H]2c2cccc(F)c2)ncn1 [Example 29, (R)-6-(3-(3-fluorophenyl)isoxazolidin-2-yl)-N-(2-methoxy-4-(4-(4-methylpiperazin-1-yl)piperidin-1-yl)phenyl)pyrimidin-4-amine]
< 50 nM | c1ccc([C@H]2CCON2c2cc(Nc3ccc(N4CCNCC4)cc3)ncn2)cc1 [Example 77, (R)-6-(3-phenylisoxazolidin-2-yl)-N-(4-(piperazin-1-yl)phenyl)pyrimidin-4-amine]
< 50 nM | COc1cc(N2CCN(C3CCN(C)CC3)C[C@H]2C)ccc1Nc1cc(N2OCC[C@@H]2c2ccccc2)ncn1 [Example 99, N-(2-methoxy-4-((R)-2-methyl-4-(1-methylpiperidin-4-yl)piperazin-1-yl)phenyl)-6-((R)-3-phenylisoxazolidin-2-yl)pyrimidin-4-amine]
< 50 nM | COc1cc(N2CCC(N3CC[C@@H](N(C)C)C3)CC2)ccc1Nc1cc(N2OCC[C@@H]2c2cccc(F)c2F)ncn1 [Example 212, 6-((R)-3-(2,3-difluorophenyl)isoxazolidin-2-yl)-N-(4-(4-((R)-3-(dimethylamino)pyrrolidin-1-yl)piperidin-1-yl)-2-methoxyphenyl)pyrimidin-4-amine]

The remaining lines, values behind:

SMILES | GI50
COc1cc(N2CCC(N3CCC(N4CCN(C5CC5)CC4)CC3)CC2)ccc1Nc1cc(N2OCC[C@@H]2c2ccccc2)ncn1 [Example 63, (R)—N-(4-(4-(4-cyclopropylpiperazin-1-yl)-[1,4′-bipiperidin]-1′-yl)-2-methoxyphenyl)-6-(3-phenylisoxazolidin-2-yl)pyrimidin-4-amine] | < 50 nM
CN1CCC(N2CCN3c4ccc(Nc5cc(N6OCC[C@@H]6c6ccccc6)ncn5)cc4OC[C@H]3C2)CC1 [Example 48, (R)-3-(1-methylpiperidin-4-yl)-N-(6-((R)-3-phenylisoxazolidin-2-yl)pyrimidin-4-yl)-1,2,3,4,4a,5-hexahydrobenzo[b]pyrazino[1,2-d][1,4]oxazin-8-amine] | < 50 nM
COc1cc(N2CCC(N3CCN(C)CC3)CC2)ccc1Nc1cc(N2OCC[C@@H]2c2ccc(C)nc2)ncn1 [Example 38, (R)—N-(2-methoxy-4-(4-(4-methylpiperazin-1-yl)piperidin-1-yl)phenyl)-6-(3-(6-methylpyridin-3-yl)isoxazolidin-2-yl)pyrimidin-4-amine] | 50 to 500 nM
CN1Cc2cc(Nc3cc(N4OCC[C@@H]4c4ccccc4)ncn3)ccc2C1=O [Example 76, (R)-2-methyl-5-((6-(3-phenylisoxazolidin-2-yl)pyrimidin-4-yl)amino)isoindolin-1-one] | < 50 nM
CN1CCN(c2cc(OCC(F)(F)F)c(Nc3cc(N4OCC[C@@H]4c4ccccc4)ncn3)cc2-c2cnn(C)c2)CC1 [Example 166, (R)—N-(5-(1-methyl-1H-pyrazol-4-yl)-4-(4-methylpiperazin-1-yl)-2-(2,2,2-trifluoroethoxy)phenyl)-6-(3-phenylisoxazolidin-2-yl)pyrimidin-4-amine] | < 50 nM
COc1cc(N2CCC(N3CCN(C)CC3)CC2)ccc1Nc1cc(N2OCC[C@@H]2c2cccc3ccccc23)ncn1 [Example 36, (R)—N-(2-methoxy-4-(4-(4-methylpiperazin-1-yl)piperidin-1-yl)phenyl)-6-(3-(naphthalen-1-yl)isoxazolidin-2-yl)pyrimidin-4-amine] | 50 to 500 nM
Cc1cc(N2CCOCC2)ccc1Nc1cc(N2OCC[C@@H]2c2ccccc2)ncn1 [Example 108, (R)—N-(2-methyl-4-morpholinophenyl)-6-(3-phenylisoxazolidin-2-yl)pyrimidin-4-amine] | < 50 nM
CCN1C2CC1CN(C1CCN(c3ccc(Nc4cc(N5OCC[C@@H]5c5cccc(F)c5F)ncn4)c(OC)c3)CC1)C2 [Example 219, 6-((R)-3-(2,3-difluorophenyl)isoxazolidin-2-yl)-N-(4-(4-(6-ethyl-3,6-diazabicyclo[3.1.1]heptan-3-yl)piperidin-1-yl)-2-methoxyphenyl)pyrimidin-4-amine] | < 50 nM
CN1CCN(C2CCN(c3ccc(Nc4cc(N5OCC[C@@H]5c5ccccc5)ncn4)cc3)CC2)CC1 [Example 54, (R)—N-(4-(4-(4-methylpiperazin-1-yl)piperidin-1-yl)phenyl)-6-(3-phenylisoxazolidin-2-yl)pyrimidin-4-amine] | < 50 nM
CCC(=O)Nc1cc(Nc2cc(N3OCC[C@@H]3c3cc(F)cc(F)c3)ncn2)c(OC)cc1N1CCC(N2CCN(C3CC3)CC2)CC1 [Example 161, (R)—N-(2-(4-(4-cyclopropylpiperazin-1-yl)piperidin-1-yl)-5-((6-(3-(3,5-difluorophenyl)isoxazolidin-2-yl)pyrimidin-4-yl)amino)-4-methoxyphenyl)propionamide] | < 50 nM
CCc1cc(Nc2cc(N3OCC[C@@H]3c3cccc(F)c3F)ncn2)c(OC)cc1N1CCC(N2CCN(C)CC2)CC1 [Example 92, (R)-6-(3-(2,3-difluorophenyl)isoxazolidin-2-yl)-N-(5-ethyl-2-methoxy-4-(4-(4-methylpiperazin-1-yl)piperidin-1-yl)phenyl)pyrimidin-4-amine] | < 50 nM
CN1CCN(C2CCN(c3ccc(Nc4cc(N5OCC[C@@H]5c5cc(F)cc(F)c5)ncn4)cc3C(F)(F)F)CC2)CC1 [Example 23, (R)-6-(3-(3,5-difluorophenyl)isoxazolidin-2-yl)-N-(4-(4-(4-methylpiperazin-1-yl)piperidin-1-yl)-3-(trifluoromethyl)phenyl)pyrimidin-4-amine] | 50 to 500 nM
COc1cc(Nc2cc(N3OCC[C@@H]3c3ccc(F)cc3F)ncn2)ccc1N1CCC(N2CCN(C)CC2)CC1 [Example 95, (R)-6-(3-(2,4-difluorophenyl)isoxazolidin-2-yl)-N-(3-methoxy-4-(4-(4-methylpiperazin-1-yl)piperidin-1-yl)phenyl)pyrimidin-4-amine] | < 50 nM
CCN1[C@H](C)CN(C2CCN(c3ccc(Nc4cc(N5OCC[C@@H]5c5cccc(F)c5F)ncn4)c(OC)c3)CC2)C[C@@H]1C [Example 215, 6-((R)-3-(2,3-difluorophenyl)isoxazolidin-2-yl)-N-(4-(4-((3S,5R)-4-ethyl-3,5-dimethylpiperazin-1-yl)piperidin-1-yl)-2-methoxyphenyl)pyrimidin-4-amine] | < 50 nM
